Among the data in ChEMBL document CHEMBL1151292, “Antineoplastic activity and cytotoxicity of flavones, isoflavones, and flavanones” (1979) are Activity and EC50 values, retold here.

One experiment relates to L1210. Briefly: In vivo antitumor activity against mouse L1210 cells. Format: functional, organism-based.
A further experiment deals with P388. Put plainly: In vivo antitumor activity against mouse P388 cells. It is filed as functional, organism-based.
For the next experiment, the system named is CCRF S-180. Put plainly: In vivo antitumor activity against mouse S180 cells. Format: functional, organism-based.
A further experiment concerns KB. Briefly: Cytotoxicity against human KB cells. Conditions: read-out: ED50 (the source's name). Format: functional.
In the next experiment the test system is Walker 256. Put plainly: In vivo antitumor activity against rat Walker 256 cells. Format: functional, organism-based.
The subject of experiment [1] is Lewis lung carcinoma cell line. Put plainly: In vivo antitumor activity against mouse LLC cells. Format: functional, organism-based.
In the next experiment the test system is CA-755. Briefly: In vivo antitumor activity against mouse CA-755 cells. Format: functional, organism-based.
For another experiment, the system named is FV. Briefly: In vivo antitumor activity against mouse FV cells. Format: functional, organism-based.
A further experiment has as its system B16. Briefly: In vivo antitumor activity against mouse B16 carcinoma cells. It is filed as functional, organism-based.

Converted amounts (≈) assume the structure as drawn. The source made the active and inactive calls. Unless noted, the calls are words filed in the database; no cut-off is given here.

For the molecule `O=C1c2cc(O)c(O)cc2OC(c2ccc(O)c(O)c2)C1O` (stereo not drawn), the outcome in the experiment on L1210, in the experiment on P388 and in the experiment on CCRF S-180 was inactive.
In the case of `COc1ccc(-c2cc(=O)c3c(O)c(OC)c(O)cc3o2)cc1` [PECTOLINARIGENIN], the outcome with L1210, in the experiment with Walker 256, with P388 and with CCRF S-180 was inactive. Besides, the EC50 with KB was 3 µg/mL (≈ 9.55 µM).
With `COc1ccc(-c2oc3cc(O)c(OC)c(O)c3c(=O)c2OC)cc1O` [CENTAUREIDIN], the EC50 in the experiment with KB was 0.4 µg/mL (≈ 1.11 µM). Also, in the experiment on P388, the outcome was inactive.
Regarding `O=c1cc(-c2ccc(O)cc2)oc2c(O)c(O)c(O)cc12`, in the experiment with KB, the EC50 stood at 22 µg/mL (≈ 76.9 µM). For the same molecule, the result (in the experiment on Walker 256; in [1]) was inactive.
Regarding `O=c1c(O)c(-c2ccc(O)cc2O)oc2cc(O)cc(O)c12`, the result in the experiment with CA-755, with L1210, in the experiment on P388 and in the experiment with CCRF S-180 was inactive.
For the molecule `Nc1c(-c2ccccc2)oc2ccc(Cl)cc2c1=O`, the result with L1210, with CCRF S-180 and with FV was inactive. Moreover, in the experiment with KB, the EC50 was over 100 µg/mL.
`COc1cc2c(=O)cc(-c3ccc(O)cc3)oc2c(OC)c1OC`: in the experiment on KB, the EC50 is 0.7 µg/mL (≈ 2.13 µM). The result in the experiment with Walker 256 and in the experiment on FV was Active. The result (in experiment [1]; in the experiment on CCRF S-180) was inactive.
On to `O=c1c(O[C@@H]2O[C@H](CO)[C@@H](O)[C@H](O)[C@H]2O)c(-c2ccc(O)c(O)c2)oc2cc(O)cc(O)c12` [ISOQUERCETIN], for which the outcome in the experiment on CA-755, in the experiment on L1210, in the experiment with Walker 256, in the experiment on P388 and with CCRF S-180 was inactive. Also, the EC50 in the experiment on KB is over 100 µg/mL.
Take `O=c1c(O)c(-c2ccccc2)oc2ccccc12` [FLAVONOL]: the result (with CA-755; with L1210; in the experiment with B16; in the experiment with P388; in experiment [1]; in the experiment on CCRF S-180) was inactive. Moreover, the EC50 in the experiment with KB was found to be 0.2 µg/mL (≈ 0.839 µM).
`COc1ccc(-c2oc3cc(O)cc(O)c3c(=O)c2OC)cc1O`: the EC50 in the experiment with KB amounted to 2 µg/mL (≈ 6.06 µM). The outcome with P388 was inactive.
Take `COc1ccc(-c2cc(=O)c3c(OC)c(OC)c(OC)c(OC)c3o2)cc1OC` [NOBILETIN]: the EC50 with KB came to 3 µg/mL (≈ 7.46 µM). The result (in the experiment on Walker 256; in [1]) was inactive.
For `COc1cccc(OC)c1-c1oc2ccccc2c(=O)c1O`, the outcome in the experiment with L1210, in the experiment on P388, in the experiment on CCRF S-180 and in the experiment on FV was inactive. For the same molecule, in the experiment with KB, the EC50 came to 1 µg/mL (≈ 3.35 µM).
Turning to `COc1ccc(OC)c(-c2cc(=O)c3c(OC)c(OC)c(OC)c(OC)c3o2)c1`, the EC50 with KB was found to be 4 µg/mL (≈ 9.94 µM). The outcome in the experiment with CCRF S-180 was inactive. The result with FV was Active.
In the case of `O=c1cc(-c2ccccc2)oc2ccc(O)cc12` [6-HYDROXYFLAVONE], the EC50 in the experiment with KB was found to be 18 µg/mL (≈ 75.6 µM). In addition, the result in the experiment on Walker 256 and in the experiment with CCRF S-180 was inactive. Further, the outcome in [1] was Active.
In the case of `O=c1c(O)c(-c2ccc(Cl)cc2)oc2ccccc12`, the result with L1210 and in the experiment with Walker 256 was inactive.
Take `COc1ccc(-c2cc(=O)c3cc(OC)c(OC)c(OC)c3o2)cc1`: the EC50 in the experiment on KB was 5 µg/mL (≈ 14.6 µM). Also, the outcome (in the experiment with Walker 256; in experiment [1]; with CCRF S-180; in the experiment on FV) was inactive.
Turning to `C[C@@H]1O[C@@H](OC[C@H]2O[C@@H](Oc3c(-c4ccc(O)c(O)c4)oc4cc(O)cc(O)c4c3=O)[C@H](O)[C@@H](O)[C@@H]2O)[C@H](O)[C@H](O)[C@H]1O`, the outcome (with CA-755; in the experiment with L1210; in experiment [1]; in the experiment with CCRF S-180) was inactive. In addition, in the experiment on Walker 256, the result was Active.
Consider `COc1cc(OC)c(-c2oc3ccccc3c(=O)c2O)cc1OC`, for which the result with L1210, with CCRF S-180 and with FV was inactive. In addition, in the experiment on KB, the EC50 came to 5 µg/mL (≈ 15.2 µM).
For the molecule `CCOc1ccc(-c2coc3cc(C)c(OCC)c(C)c3c2=O)cc1`, in the experiment with FV, the result was inactive.
As for `COc1c(OC)c(OC)c2c(=O)cc(-c3ccc4c(c3)OCO4)oc2c1OC`, the result in the experiment on Walker 256 was inactive.
For the molecule `O=C1CC(c2ccccc2)Oc2ccccc21` (stereo not drawn), the result in the experiment on CA-755, in the experiment on L1210, in the experiment with CCRF S-180 and in the experiment on FV was inactive.
Take `Cc1oc2cc(O)ccc2c(=O)c1-c1ccccc1`: the outcome in the experiment with L1210 and with Walker 256 was inactive.
As to `COc1cc(OC)c(-c2cc(=O)c3c(OC)c(OC)c(OC)c(OC)c3o2)cc1OC`, the EC50 in the experiment on KB turned out to be 13 µg/mL (≈ 30.1 µM). The result in the experiment with Walker 256 was Active. The outcome in [1] was inactive.
On to `COc1ccc(-c2cc(=O)c3c(O)cc(O)cc3o2)cc1` [ACACETIN], for which the result in the experiment with CA-755, in the experiment with L1210, in the experiment on P388 and with CCRF S-180 was inactive. Further, the EC50 with KB is over 100 µg/mL.
`CCOC1(O)C(=O)c2ccccc2OC1(OCC)c1ccccc1` (stereo not drawn): the outcome in the experiment on L1210 and in the experiment with Walker 256 was inactive.
Turning to `O=c1c(O)c(-c2ccc(O)c(O)c2)oc2cc(O)ccc12` [FISETIN], the outcome (with L1210; with P388; in experiment [1]; in the experiment on CCRF S-180) was inactive. In addition, in the experiment with KB, the EC50 is over 100 µg/mL.
With `COc1ccc(C2(OC)Oc3cc(OC)ccc3C(=O)C2(O)OC)cc1` (stereo not drawn), the outcome with L1210 and with Walker 256 was inactive.
Consider `COC1(O)C(=O)c2ccccc2OC1(OC)c1ccc(C)cc1` (stereo not drawn), for which the result in the experiment on L1210 and with Walker 256 was inactive.
Turning to `Cc1ccc2oc(-c3ccccc3)c(O)c(=O)c2c1`, the outcome with L1210, in the experiment on B16, in the experiment with P388 and with CCRF S-180 was inactive. The EC50 in the experiment on KB came to 2 µg/mL (≈ 7.93 µM).
`O=c1cc(-c2ccccc2)oc2cc(O)cc(O)c12` [CHRYSIN]: the outcome in the experiment on L1210 and in the experiment on Walker 256 was inactive. Also, the EC50 in the experiment on KB came out at 13 µg/mL (≈ 51.1 µM).
With `COc1cc(OC)cc(-c2cc(=O)c3c(OC)c(OC)c(OC)c(OC)c3o2)c1`, the EC50 in the experiment on KB stood at 3 µg/mL (≈ 7.46 µM). Moreover, the result (in experiment [1]; in the experiment with CCRF S-180) was inactive. In the experiment on FV, the result was Active.
In the case of `O=c1c(O)c(-c2cc(O)c(O)c(O)c2)oc2cc(O)cc(O)c12` [MYRICETIN], the result with L1210 and in the experiment with B16 was inactive. Further, the EC50 with KB was found to be 15 µg/mL (≈ 47.1 µM).
For `COc1ccc2c(=O)c(C)c(-c3ccccc3)oc2c1`, the outcome with L1210 and in the experiment on CCRF S-180 was inactive. The EC50 in the experiment with KB was 43 µg/mL (≈ 161 µM). Moreover, in the experiment with FV, the result was Active.
On to `COc1ccc2c(c1)C(=O)C(O)(OC)C(OC)(c1ccccc1)O2` (stereo not drawn), for which the outcome in the experiment with L1210 and with Walker 256 was inactive.
For the molecule `COc1cc2occ(-c3ccc(O)cc3)c(=O)c2c(OC)c1O`, the outcome in the experiment with FV was inactive.
Take `COc1ccc(-c2coc3cc(OC)c(OC)c(OC)c3c2=O)cc1`: the EC50 in the experiment on KB is 34 µg/mL (≈ 99.3 µM). Further, the result in the experiment on CCRF S-180 was inactive. The outcome in the experiment on FV was Active.
As for `COc1ccc(-c2coc3c(OC)c(OC)c(OC)c(OC)c3c2=O)cc1`, the result with FV was Active.
In the case of `COc1ccc(-c2cc(=O)c3ccccc3o2)c(OC)c1OC`, the result (with CA-755; in the experiment with L1210; in experiment [1]; in the experiment on CCRF S-180) was inactive. In addition, in the experiment on KB, the EC50 worked out at 13 µg/mL (≈ 41.6 µM).
On to `COc1ccc(-c2cc(=O)c3c(O)cc(OC)cc3o2)cc1` [APIGENIN DIMETHYLETHER], for which the outcome (in the experiment on L1210; in the experiment on P388; in [1]; with CCRF S-180) was inactive. In addition, in the experiment with KB, the EC50 is 45 µg/mL (≈ 151 µM).
Regarding `O=c1c(O)c(-c2ccc(O)c(O)c2)oc2cc(O)cc(O)c12` [QUERCETIN], the EC50 in the experiment with KB is 25 µg/mL (≈ 82.7 µM). For the same molecule, in the experiment on Walker 256, the outcome was Active.
Turning to `COc1ccc(C2(OC)Oc3ccccc3C(=O)C2(O)O)cc1` (stereo not drawn), the result in the experiment on L1210 and in the experiment with Walker 256 was inactive.
For the molecule `O=c1cc(-c2ccccc2)oc2cccc(O)c12` [5-HYDROXYFLAVONE], in the experiment on KB, the EC50 was 20 µg/mL (≈ 83.9 µM). Also, the outcome in the experiment on Walker 256 was Active. Besides, the outcome (in experiment [1]; with CCRF S-180) was inactive.
Take `O=c1c(O)c(-c2c(O)cccc2O)oc2ccccc12`: the result in the experiment on L1210, in the experiment on CCRF S-180 and with FV was inactive. Moreover, in the experiment on KB, the EC50 is over 100 µg/mL.
Take `O=C1c2c(O)cc(O)cc2OC(c2ccc(O)c(O)c2)C1O` (stereo not drawn) [TAXIFOLIN]: the outcome with CA-755, in the experiment with Walker 256 and in the experiment on CCRF S-180 was inactive. Moreover, the EC50 in the experiment with KB is 40 µg/mL (≈ 131 µM).
With `O=c1c(-c2ccc3c(c2)OCO3)coc2cc(O)ccc12`, the result in the experiment with L1210 and in the experiment with Walker 256 was inactive.
